In US10413576B2, “Therapy for use in the treatment of tumors, acquired immunodeficiency syndrome and leukemias by dual immune biostimulation” (priority 2014, dated 2019):
Entries after “also recorded” stand apart in the source; their conditions may differ.

Test system: peripheral blood mononuclear cells (PBMC)
Experiment: PBMC cell proliferation analysis (BrdU, cytofluorimetry)
Type: cell-based, human
Conditions: PBMC proliferative response vs absence of stimulation (baseline); cut-off P.I. 2
Procedure: Next, peripheral blood mononuclear cells were separated. The peripheral blood mononuclear cells (PBMC) were separated by density gradient centrifugation. For this aim, 20 ml of “buffy coat” of healthy donors from the immune-transfusion Service of Ospedale di Borgomanero (Italy) were used for each experiment, thus obtaining an average yield of 200×10^6 PBMC/buffy. The amount of separated cells was determined by cell count in Burker's chambers, using Turk's dye, which allows to discriminating between mononuclear and polymorphonuclear cells. […]
Then, the cell proliferation analysis was performed. Cell proliferation was assessed with a cytofluorimetric technique by using the bromodeoxyuridine (BrdU) nuclear labeling protocol. […] Following to 16-hour incubation at 37° C. under humidified atmosphere, 5% CO2, the cell proliferation was analyzed by a cytofluorirnetric technique. […] The cells were analyzed within 24 hours from their preparation by using a cytofluorimeter FACScalibur from Becton Dikinson Company and the analysis program CellQuest.
Results were expressed as cell proliferation index (P.I.), being calculated as ratio of the percentage of proliferating cells in the presence of stimulus and the percentage of the same in the absence of stimulation, A P.I. value greater than 2 was considered acceptable (cut-off value). […]

In the case of Phytohaemagglutinin [PHA], the “cell proliferation index (P.I.)” value was “significantly higher; also recorded: greater than the cut-off value”.
